From US20040146959A1, “Fluorescent enzyme assay methods and compositions” (priority 2002, published 2004)
Where no end group is shown, it is not given here. [ ]: non-standard residue; d: D form. The star is where a group is joined. C13 = acyl group coded C13, not further defined; C15 = acyl group coded C15, not further defined; C17 = acyl group coded C17, not further defined; Palmitoyl = CCCCCCCCCCCCCCCC(=O)*; pS = N[C@@H](COP(=O)(O)O)C(=O)O; K(dye2) = not defined here; OOO = not defined here

Assays:
[1] = target: T1, PKA (Bos taurus, UniProt P00517); assay: Phosphorylation assay of linker substrates (Table 3), PKA; assay type: biochemical; conditions: substrate conc 8 uM
T1 construct: purchased Promega (Madison, Wis.)

[2] = test system: PKC; assay: Phosphorylation assay of linker substrates (Table 3), PKC; assay type: biochemical; conditions: substrate conc 4 or 6 uM (column Conc)
Description: Protein kinase C reaction mixture aliquots (9 μL each) containing 2 μL 5× buffer (composed of 100 mM Tris, pH 8.1+25 mM MgCl2, and 0.5% v/v β-mercaptoethanol) 1 μL Upstate Lipid Activator, 0.05 μL Promega Protein Kinase C, 5.55 μL deionized water, and 0.4 μL substrate were added to wells of the 384 well plate. The reactions were initiated by the addition of 1 μL of Sigma-Aldrich ATP into each well.

[3] = target: MAPKAP2 (Homo sapiens, UniProt P49137); assay: Phosphorylation assay of linker substrates (Table 3), MAPKAP2; assay type: biochemical; conditions: substrate conc 8 uM
Sequence of MAPKAP2 (P49137 whole entry): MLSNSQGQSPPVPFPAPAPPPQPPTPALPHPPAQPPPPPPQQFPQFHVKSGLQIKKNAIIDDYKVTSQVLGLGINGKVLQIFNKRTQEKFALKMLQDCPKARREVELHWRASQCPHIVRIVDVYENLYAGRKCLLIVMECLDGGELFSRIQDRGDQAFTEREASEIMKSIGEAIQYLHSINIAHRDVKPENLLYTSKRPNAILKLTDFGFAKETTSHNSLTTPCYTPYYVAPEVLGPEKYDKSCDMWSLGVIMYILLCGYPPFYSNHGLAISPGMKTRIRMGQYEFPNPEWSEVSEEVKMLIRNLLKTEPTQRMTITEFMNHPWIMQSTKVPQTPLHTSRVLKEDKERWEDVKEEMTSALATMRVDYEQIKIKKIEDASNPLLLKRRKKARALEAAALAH

[4] = target: E. coli alkaline phosphatase (Escherichia coli, UniProt P00634); assay: Detection of phosphatase activity (Example 2B); assay type: biochemical; conditions: substrate 20 μM, Tris HCl pH 9, MgCl2 1 mM, 0.5 units enzyme
Sequence of E. coli alkaline phosphatase (P00634 22-471): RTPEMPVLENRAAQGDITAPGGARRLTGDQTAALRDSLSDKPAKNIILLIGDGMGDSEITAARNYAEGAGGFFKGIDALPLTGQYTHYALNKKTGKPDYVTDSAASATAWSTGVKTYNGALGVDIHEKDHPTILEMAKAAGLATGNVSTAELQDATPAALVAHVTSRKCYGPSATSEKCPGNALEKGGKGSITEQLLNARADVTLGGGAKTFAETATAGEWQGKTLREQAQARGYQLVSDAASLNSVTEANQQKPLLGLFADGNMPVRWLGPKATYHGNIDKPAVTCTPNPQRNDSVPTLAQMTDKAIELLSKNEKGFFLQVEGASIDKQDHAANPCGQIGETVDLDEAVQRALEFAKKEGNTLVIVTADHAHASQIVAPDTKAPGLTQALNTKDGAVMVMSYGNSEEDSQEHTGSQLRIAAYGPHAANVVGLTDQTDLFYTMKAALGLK
Description: Phosphatase reactions were performed in a 100 μL reaction mixture containing compound 2 (20 μM), Tris HCl buffer (50 mM) at pH 9, and MgCl2 (1 mM). Reactions were initiated by adding 0.5 units of E. coli alkaline phosphatase in 1 to 5 μL. The fluorescence was monitored on a Perkin-Elmer LS-50B luminescence spectrometer with excitation at 480 nm and emission at 525 and slit widths at 5 nm.

[5] = target: T2, protein kinase A (Bos taurus, UniProt P00517); assay: Detection of protein kinase activity, fluorescence increase (Examples 4B, 5B, 6B); assay type: biochemical; conditions: for time to maximum fluorescence: after addition of ATP (compounds 7, 8) or enzyme (compound 9); for fold increase in fluorescence: maximum vs starting fluorescence; for maximum fluorescence after start of the kinase reaction / fluorescence before start of the kinase reaction: substrate 1 μM; for maximum fluorescence after start of the kinase reaction: ATP 0.5 mM, protein kinase A 35 or 7 units; for fluorescence before start of the kinase reaction: Tris pH 8.1 20 mM, MgCl2 1 mM, 100 μL
T2 construct: purchased Promega (Madison, Wis.)
Description: Fluorescence data were collected on a Perkin-Elmer LS-50B luminescence spectrometer. […] ATP was added to a final concentration of 0.5 mM and the fluorescence monitored, reaching a maximum of 180 fluorescence units after 6 minutes, or a 5-fold increase.
Fluorescence data were collected on a Perkin-Elmer LS-50B luminescence spectrometer. […] ATP was added to a final concentration of 0.5 mM and the fluorescence monitored, reaching a maximum of 493 fluorescence units after 5 minutes, or a 3.5-fold increase.
Fluorescence data were collected on a Perkin-Elmer LS-50B luminescence spectrometer. […] Protein kinase A (7 Units) was added and the fluorescence monitored, reaching a maximum of 420 fluorescence units after 3 minutes, or an 8-fold increase.

[6] = test system: CCCCCCCCCCCCCCCC(=O)NCc1ccc(C(=O)NCc2c(O)ccc3c2Oc2cc(O)ccc2C32OC(=O)c3cc(C(=O)N[C@@H](COP(=O)(O)O)C(=O)N[C@@H](CC(C)C)C(=O)N[C@@H](CCCNC(=N)N)C(=O)N[C@@H](CCCNC(=N)N)C(=O)N[C@@H](CCCNC(=N)N)C(=O)N[C@@H](CCCNC(=N)N)C(=O)N[C@@H](Cc4ccccc4)C(=O)N[C@@H](CO)C(=O)N[C@@H](CCCCNC(C)=O)C(=O)NCC(N)=O)ccc32)cc1; assay: Protein kinase A detection, double reciprocal plot of initial velocities (Example 1B); assay type: biochemical; conditions: other: substrate 0.15, 0.3, 0.6 μM, Tris pH 8.5, Mg-ATP 1 mM, cAMP 1 μM, catalytic subunit 2 units
Description: (1 μM), and different concentrations of compound 1 (0.15 μM, 0.3 μM, and 0.6 μM), to which the catalytic subunit of protein kinase A (2 units) was then added. Fluorescence was monitored on a Perkin-Elmer LS-50B luminescence spectrometer with 500 nm excitation and emission at 530 nm, and slit width at 5 nm.

[7] = target: T3, pp60^c-src-related protein tyrosine kinase (Homo sapiens, UniProt P12931); assay: Detection of pp60c-src-related protein tyrosine kinase (Example 10B); assay type: biochemical; conditions: substrate 2.5 μM, 5 μL reaction volume, ATP 50 μM
T3 construct: purchased Upstate, Inc. (Lake Placid, N.Y.) 14-326
Description: Example 10 describes an assay for pp60^c-src-related protein tyrosine kinase. […] Enzyme reactions were performed in triplicate for a single substrate concentration, and two no-enzyme controls were also performed.
Five wells of a Corning 384-well plate, black with a non-binding surface and low volume wells (cat. No. 3676) (Corning, Inc., Acton, Mass.) were used. Each well contained 5 μL of a solution containing compound 9 (2.5 μM), MgCl2 (1 mM), Tris buffer, pH 8.1 (20 mM) and src, active (1 unit, cat. No. 14-326). The kinase reaction was initiated in three of the wells by the addition of 1.25 μL of ATP (200 μM) to a final concentration of 50 μM.

[8] = test system: MAPK; assay: Phosphorylation assay of linker substrates (Table 3), MAPK; assay type: biochemical; conditions: substrate conc 16 uM
[9] = test system: T4, compound 1, palmitoyl-FAM-S(OPO3^2-)LRRRRFSK(Ac)G-amide
T4 sequence: SLRRRRFSKG

[10] = target: Akt (Homo sapiens, UniProt P31749); assay: Phosphorylation assay of linker substrates (Table 3), Akt; assay type: biochemical; conditions: substrate conc 8 uM
Sequence of Akt (P31749 whole entry): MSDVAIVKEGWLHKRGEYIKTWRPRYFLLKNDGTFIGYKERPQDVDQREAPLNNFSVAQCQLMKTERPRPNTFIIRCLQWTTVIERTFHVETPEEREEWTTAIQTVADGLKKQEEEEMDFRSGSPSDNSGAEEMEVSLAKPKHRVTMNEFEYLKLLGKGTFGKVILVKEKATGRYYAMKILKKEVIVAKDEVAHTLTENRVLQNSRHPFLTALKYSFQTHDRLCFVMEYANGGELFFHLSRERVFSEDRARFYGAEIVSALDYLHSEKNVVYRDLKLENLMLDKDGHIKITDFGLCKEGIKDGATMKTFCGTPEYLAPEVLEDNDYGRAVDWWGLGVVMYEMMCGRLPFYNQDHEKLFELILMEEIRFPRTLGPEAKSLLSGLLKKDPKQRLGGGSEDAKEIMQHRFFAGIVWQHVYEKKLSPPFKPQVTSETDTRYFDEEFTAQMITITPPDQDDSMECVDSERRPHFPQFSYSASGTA

[11] = test system: Src, lyn, fyn; assay: Phosphorylation assay of linker substrates (Table 3), Src, lyn, fyn; assay type: biochemical; conditions: substrate conc 8 uM

C13-K(dye2)-LRRASLG-NH2 ({C13-K(dye2)}-LRRASLG-NH2; reading uncertain; also: printed as C13-K(dye2)-LRRASLG-NH2) [PKA substrate; dye2 = 5-carboxy-2′,7′-dipyridyl-sulfonefluorescein]
Fold increase [1]: 5×
RFUs at 10 uL (final) [1]: 5000 RFUs
RFUs at 10 uL (initial) [1]: 1000 RFUs

C17-OOOK(tet)-RQGSFRA-NH2 ({C17-OOO-K(TET)}-RQGSFRA-NH2; reading uncertain; also: printed as C17-OOOK(tet)-RQGSFRA-NH2) [PKC substrate; tet = 2′,7′,4,7-tetachloro-5-carboxy fluorescein]
Fold increase [2]: 7×
RFUs at 10 uL (final) [2]: 4900 RFUs
RFUs at 10 uL (initial) [2]: 700 RFUs

C16-OOOK(dye2)RLNRTLSV-NH2 ({Palmitoyl-OOO-K(dye2)}-RLNRTLSV-NH2; reading uncertain; also: printed as C16-OOOK(dye2)RLNRTLSV-NH2) [MAPKAP2 substrate]
Fold increase [3]: 4×
RFUs at 10 uL (final) [3]: 3200 RFUs
RFUs at 10 uL (initial) [3]: 800 RFUs

palmitoyl-LRRRRFS(OPO3^2−)K(5-FAM)G-amide (Palmitoyl-LRRRRF[pS]-{K(5-FAM)-Gly-NH2}) [Compound 2]
change in fluorescence over time on reaction with phosphatase [4]: immediate and significant increase in fluorescence over time

N-(1H, 1H,2H,2H-Perfluorodecyl-1-thiol-2-acetyl)-K-(5-carboxysulfofluorescein) LRRASL-G-amide [Compound 7]
time to maximum fluorescence [5]: 6 min
fold increase in fluorescence [5]: 5 fold
maximum fluorescence after start of the kinase reaction [5]: 180 fluorescence units
fluorescence before start of the kinase reaction [5]: 35 fluorescence units

protein kinase A (Bos taurus)
Km [6]: 0.3 µM

N-palmitoyl-Lys(ε-N-5-carboxy-sulfonefluorescein)KVEKIGEGTYGVVKK-amide ({Palmitoyl-K(5-carboxy-sulfonefluorescein)}-KVEKIGEGTYGVVKK-NH2) [Compound 13]
fluorescent signal on reaction with kinase [7]: a strong fluorescent signal with high signal-to-noise was observed

(N-palmitoyl)-Lys(N-5-carboxy-2,′7′-dipyridyl-sulfofluorescein)-OOO-RREGSFR-amide (RREGSFR-NH2; not fully specified (N-terminus); printed as C16-OOOK(dye2)-RREGSFR-NH2) [Compound 10]
Fold increase [2]: 4.5×
RFUs at 10 uL (final) [2]: 3000 RFUs
RFUs at 10 uL (initial) [2]: 650 RFUs

C17-OOOK(dye2)PRTPGGR-NH2 ({C17-OOO-K(dye2)}-PRTPGGR-NH2; reading uncertain; also: printed as C17-OOOK(dye2)PRTPGGR-NH2) [MAPK substrate]
Fold increase [8]: 5×
RFUs at 10 uL (final) [8]: 5700 RFUs
RFUs at 10 uL (initial) [8]: 1100 RFUs

protein kinase A
Km (double reciprocal plot of initial velocities, fluorescence kinase assay) [9]: a Km value of 0.3 µM

C15-OOOK(dye2)RPRTSSF-NH2 ({C15-OOO-K(dye2)}-RPRTSSF-NH2; reading uncertain; also: printed as C15-OOOK(dye2)RPRTSSF-NH2) [Akt substrate]
Fold increase [10]: 4×
RFUs at 10 uL (final) [10]: 7500 RFUs
RFUs at 10 uL (initial) [10]: 1500 RFUs

(5-carboxy-2,7-dipyridyl-sulfofluorescein)-K-(N-perfluoro-octanoyl-proline)-LRRASLG-amide [Compound 8]
time to maximum fluorescence [5]: 5 min
fold increase in fluorescence [5]: 3.5 fold
maximum fluorescence after start of the kinase reaction [5]: 493 fluorescence units
fluorescence before start of the kinase reaction [5]: 140 fluorescence units

C16-OOOK(dye2)RIGEGTYGVVRR-NH2 ({Palmitoyl-OOO-K(dye2)}-RIGEGTYGVVRR-NH2; reading uncertain; also: printed as C16-OOOK(dye2)RIGEGTYGVVRR-NH2) [Src, lyn, fyn substrate]
Fold increase [11]: 6.5×
RFUs at 10 uL (final) [11]: 6500 RFUs
RFUs at 10 uL (initial) [11]: 1000 RFUs

N-AcetylRGRPRTSSFAEG-OOOK(N-5-Carboxysulfo-fluroescein)K(N-Octadecanoyl)-amide [Compound 9]
time to maximum fluorescence [5]: 3 min
fold increase in fluorescence [5]: 8 fold
maximum fluorescence after start of the kinase reaction [5]: 420 fluorescence units
fluorescence before start of the kinase reaction [5]: 50 fluorescence units

C13-OOOK(dye2)-LRRASLG-NH2 (not fully specified (N-terminus); printed as C13-OOOK(dye2)-LRRASLG-NH2) [PKA substrate; O = 2-aminoethoxy-2-ethoxyacetyl linker]
Fold increase [1]: 5×
RFUs at 10 uL (final) [1]: 5000 RFUs
RFUs at 10 uL (initial) [1]: 1000 RFUs
